Entries after “also recorded” stand apart in the source; their conditions may differ.
Tests used:
[1] = test system: GFAP; test: GFAP staining of cerebellum (glial cell activation, gliosis); type: in vivo, SJL/J female mice; conditions: 50 μg/mouse IP (FIG. 8)
Protocol: (§1) Untreated mice or mice injected with DMSO as a vehicle were used. For positive group, the results regarding the effects of RTX were used. During the course of the EAE disease, the animals were independently observed and monitored daily, and the EAE clinical score was recorded according to the following scoring scheme: 0=no clinical disease, 1=tail flaccidity, 2=hind limb weakness, 3=hind limb paralysis, 4=forelimb paralysis, and 5=moribund or death. The body weight changes were also monitored for all the mice groups. After the termination of the experiment, the mice were sacrificed, and their brains were collected for histological and immunohistochemistry analysis.
FIG. 7 illustrates infiltration of CD3^+ lymphocytes into the cerebellum of mice brains (rectangles or squares). […] To further investigate the effects of the drugs on brain inflammation, we examined the activation of glial cells by staining with GFAP which determines the degree of gliosis.

[2] = test system: demyelination in the cerebellum; test: Luxol fast blue staining of cerebellum (demyelination / re-myelination); type: in vivo, SJL/J female mice; conditions: 50 μg/mouse IP (FIG. 9)
Protocol: as §1
FIG. 8 illustrates mouse brain cerebellum (rectangles or squares) was stained with GFAP to determine the degree of glial cell activation. […] Finally, we stained the mice brain cerebellum with Luxol fast blue to determine the degree of re-myelination after treatment with the two drugs.

[3] = test system: experimental autoimmune encephalomyelitis (EAE) model; test: EAE clinical score in PLP-induced EAE mice; type: in vivo, SJL/J female mice; conditions: for clinical score severity and clinical features (therapeutic effect in EAE mice model): regimen not specified
Protocol: The basic experimental approaches to test the efficacy of the compounds in the EAE model were done using the methodologies developed in our laboratory. EAE disease was induced in 4-6 weeks SJL female mice using 200 μg PLP peptide emulsified in complete Freund's adjuvant (CFA) containing 1 mg heat-killed Mycobacterium tuberculosis, injected at four sites in the right and left flanks. Following each injection, 200 ng of Bordetella pertussis toxin PTX) was injected intraperitoneal (IP) on days 0 and 2 post PLP immunization. The mice were divided into several groups: 1. prevention, where they were treated with 50 μg/mouse of SIMR1281 or SIMR1707 starting 15 days before the induction of EAE and continued […]. 2. Prophylactic, mice were treated with 50 μg/moues of SIMR1281 or SIMR1707 starting from day of EAE induction and continued every three days until termination (usually between 40-45 days). 3. Therapeutic, where mice were treated with 50 μg of SIMR1281 or SIMR1707 from the days of disease development (usually between 8-10 post EAE induction), and continued every three days until termination. The procedure for these regimens is shown below: • A. Prophylactic regimen: Mice were injected IP with 50 μg/mouse every 3 days since the initiation of the disease and until termination.
[drawing 3] • B. Therapeutic regimen: Mice were injected IP with 50 μg/mouse every 3 days at the appearance of symptoms (usually […]) days after initiation of the disease and until termination.
[drawing 4] • C. Prevention: The mice were injected IP with 50 μg/mouse of SIMR 1707 or 1281 at days −15, −10, −5, and 0. EAE was induced at day 0.
as §1

[4] = test system: CD3^+ T lymphocyte infiltration into the cerebellum; test: Anti-CD3 staining of cerebellum; type: in vivo, SJL/J female mice; conditions: 50 μg/mouse IP (FIG. 7)
Protocol: as §1
FIG. 6 illustrates H&E staining of mice cerebellum (rectangles) showing highly inflamed lesions in EAE untreated and vehicle treated mice (arrows). […] Further, infiltration of CD3 cells into the mice cerebellum stained with anti-CD3 was performed.

[5] = test system: perivascular inflammatory infiltrates in cerebellum; test: H&E staining of brain cerebellum (degree of inflammation); type: in vivo, SJL/J female mice; conditions: 50 μg/mouse IP (FIG. 6)
Protocol: as §1
(§2) FIG. 5 illustrates the weights of mice measured every day through the course of the experiments, i.e. up to 45 days after the initiation of the disease. FIGS. 5A, 5B and 5C, show the weights of mice after prophylactic, therapeutic or prevention regimen, respectively. Significant values shown in the right panels compared the mice body weights among the various groups. To corroborate the results of clinical scores with histological evaluation, we performed immunohistochemistry analysis to evaluate the effects of the two drugs on the inflammation taking place in the brain. First, we stained the brain cerebellum of these mice with H&E to evaluate the degree of inflammation.

[6] = Body weight of EAE mice during treatment; type: in vivo; conditions: prophylactic, therapeutic or prevention regimen, measured every day up to 45 days (FIG. 5)
Protocol: as §1, §2

[7] = prevention regimen, 50 μg/mouse IP on days −15, −10, −5 and 0, EAE induced at day 0, vs vehicle or untreated (FIG. 3C)
[8] = prophylactic regimen, 50 μg/mouse IP every 3 days from EAE induction until termination, vs vehicle or untreated (FIG. 3A)
[9] = therapeutic regimen, 50 μg/mouse IP every 3 days from appearance of symptoms until termination, vs vehicle or untreated (FIG. 3B)

| Compound | GFAP expression / gliosis ([1]; prevention regimen) | GFAP expression / gliosis ([1]; prophylactic regimen) | GFAP expression / gliosis ([1]; therapeutic regimen) | demyelination / re-myelination (Luxol fast blue) ([2]; prevention regimen) | demyelination / re-myelination (Luxol fast blue) ([2]; prophylactic regimen) | demyelination / re-myelination (Luxol fast blue) ([2]; therapeutic regimen) | clinical score severity and clinical features (therapeutic effect in EAE mice model) [3] | EAE clinical scores [3, 7] | EAE clinical scores [3, 8] | EAE clinical scores [3, 9] | CD3^+ T lymphocyte infiltration ([4]; prevention regimen) | CD3^+ T lymphocyte infiltration ([4]; prophylactic regimen) | CD3^+ T lymphocyte infiltration ([4]; therapeutic regimen) | inflammation, perivascular inflammatory infiltrates (H&E) ([5]; prevention regimen) | inflammation, perivascular inflammatory infiltrates (H&E) ([5]; prophylactic regimen) | inflammation, perivascular inflammatory infiltrates (H&E) ([5]; therapeutic regimen) | body weight [6] | EAE clinical scores ([3]; RTX as prophylactic drug, IP from day 0 every three days until termination (FIG. 4A)) | EAE clinical scores ([3]; RTX as therapeutic drug, 5 μg/mouse IP from first sign of disease every three days until termination (FIG. 4B)) | EAE clinical scores ([3]; RTX prevention regimen, IP on days −15, −10, −5 and 0, particularly at high concentration, 20 μg/mouse (FIG. 4C)) |
| --- | --- | --- | --- | --- | --- | --- | --- | --- | --- | --- | --- | --- | --- | --- | --- | --- | --- | --- | --- | --- |
| CC1(C)[C@H]2COc3ccc4ccccc4c3[C@H]2N=C2SC(c3ccccc3)=C(c3ccccc3)N21 [SIMR-1281, (8aS,14aS)-9,9-dimethyl-11,12-diphenyl-8a,14a-dihydro-8H,9H-benzo[5,6]chromeno[4,3-d]thiazolo[3,2-a]pyrimidine] | significant reduction; also recorded: so robust in preventing gliosis | significant reduction; also recorded: so robust in preventing gliosis | significant reduction; also recorded: so robust in preventing gliosis | no evidence of demyelination | no evidence of demyelination | no evidence of demyelination | significant reduction | significant decrease | significant decrease | significant decrease | no evidence of CD3^+ T lymphocyte infiltration; also recorded: no CD3^+ T cell accumulation | no evidence of CD3^+ T lymphocyte infiltration; also recorded: no CD3^+ T cell accumulation | no evidence of CD3^+ T lymphocyte infiltration; also recorded: no CD3^+ T cell accumulation | no evidence of any perivascular inflammatory infiltrates; also recorded: no inflammation | no evidence of any perivascular inflammatory infiltrates; also recorded: no inflammation | no evidence of any perivascular inflammatory infiltrates; also recorded: no inflammation | significantly increased the weights |  |  |  |
| C[C@]12CCC(=O)C[C@H]1N1CCc3c([nH]c4ccccc34)[C@@H]1CO2 [SIMR-1707] | only partial reduction; also recorded: Less gliosis | significant reduction; also recorded: no obvious glial cells activation | significant reduction; also recorded: no obvious glial cells activation | partial improvement in re-myelination; also recorded: partial improvement in demyelination | partial improvement in re-myelination; also recorded: partial improvement in demyelination | significant reduction in the demyelination areas | significant reduction | not when used in the prevention regimen | effective | effective | less infiltration of CD3^+ T cells | partially reduce; also recorded: less infiltration of CD3^+ T cells | no evidence of any CD3^+ T lymphocyte infiltration; also recorded: completely disappeared | minimal evidence of perivascular inflammatory infiltrates; also recorded: less inflammation | minimal evidence of perivascular inflammatory infiltrates; also recorded: less inflammation | no evidence of perivascular inflammatory infiltrates; also recorded: completely disappeared | significantly increased the weights |  |  |  |
| Rituximab [RTX, reference compound] |  |  |  |  |  |  |  |  |  |  |  |  |  |  |  |  |  | did not exert significant differences | did not exert significant differences | only worked in the prevention regimen |
